The assay concerns the target human MER (528-end) (Homo sapiens (Human), UniProt Q12866). The assay can be described thus: HTRF Kinase Activity Biochemical Assay (KinEASE-TK). The note with it: 10 uM ATP. Summed up: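 Activity read-out is the HTRF ratio (665 nm over 620 nm emission, ×10,000; excitation 340 nm) after 1 h detection with 0.375 nM Eu3+-cryptate anti-TK antibody plus 0.062 uM SA-XL665. Preceding kinase step: human MER (528-end), biotinylated TK substrate, 1 h, room temperature.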
For orientation: Time-resolved FRET reads energy transfer from a long-lived donor to a nearby acceptor.

Sequence of human MER (528-end) (Q12866 528-999 limits assumed): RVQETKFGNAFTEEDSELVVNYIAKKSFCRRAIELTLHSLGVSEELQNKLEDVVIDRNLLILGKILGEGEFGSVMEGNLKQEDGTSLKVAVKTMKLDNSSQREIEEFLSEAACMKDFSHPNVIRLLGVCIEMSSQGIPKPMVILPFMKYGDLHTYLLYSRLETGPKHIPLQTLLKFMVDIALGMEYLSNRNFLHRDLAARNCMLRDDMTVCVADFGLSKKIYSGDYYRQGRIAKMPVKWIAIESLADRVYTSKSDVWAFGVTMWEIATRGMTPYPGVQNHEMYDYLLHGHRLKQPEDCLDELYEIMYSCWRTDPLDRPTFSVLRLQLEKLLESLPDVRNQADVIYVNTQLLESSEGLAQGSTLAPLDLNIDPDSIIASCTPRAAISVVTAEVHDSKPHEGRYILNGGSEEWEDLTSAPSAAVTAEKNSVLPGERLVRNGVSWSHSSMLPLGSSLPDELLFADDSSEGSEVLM

As to `Cn1cc(-c2cnc(N)c(C(=O)N[C@@H]3CCN(C(=O)c4cccc(O)c4)C3)c2)cn1` [Example 515, (R)-2-amino-N-(1-(3-hydroxybenzoyl)pyrrolidin-3-yl)-5-(1-methyl-1H-pyrazol-4-yl)nicotinamide], the IC50 (as a rule, the concentration at which inhibition is half-maximal) is more than 1000 nM.

The molecule `Cc1c(-c2ccc(C(=O)N3CC[C@@H](NC(=O)c4cc(-c5cnn(C)c5)cnc4N)C3)cc2)cnn1C` [Example 517, (R)-2-amino-N-(1-(4-(1,5-dimethyl-1H-pyrazol-4-yl)benzoyl)pyrrolidin-3-yl)-5-(1-methyl-1H-pyrazol-4-yl)nicotinamide] showed a 50% inhibitory concentration (IC50) of 10 to 100 nM.

`Cc1nn(-c2ccccc2)c(C)c1-c1ccc(C(=O)N2CC[C@@H](NC(=O)c3cc(-c4cnn(C)c4)cnc3N)C2)cc1` [Example 519, (R)-2-amino-N-(1-(4-(3,5-dimethyl-1-phenyl-1H-pyrazol-4-yl)benzoyl)pyrrolidin-3-yl)-5-(1-methyl-1H-pyrazol-4-yl)nicotinamide] showed an IC50 of more than 1000 nM.

In turn, `Cc1sc(-c2ccc(C(=O)N3CC[C@@H](NC(=O)c4cc(-c5cnn(C)c5)cnc4N)C3)cc2)c(C)c1Br` [Example 522, (R)-2-amino-N-(1-(4-(4-bromo-3,5-dimethylthiophen-2-yl)benzoyl)pyrrolidin-3-yl)-5-(1-methyl-1H-pyrazol-4-yl)nicotinamide] displayed an IC50 of 100 to 1000 nM.

`Cn1cc(-c2cnc(N)c(C(=O)N[C@@H]3CCN(C(=O)c4ccc(-c5ccc(Oc6ccccc6)cc5)cc4)C3)c2)cn1` [Example 527, (R)-2-amino-5-(1-methyl-1H-pyrazol-4-yl)-N-(1-(4′-phenoxy-[1,1′-biphenyl]-4-carbonyl)pyrrolidin-3-yl)nicotinamide]: the IC50 is 100 to 1000 nM.

For the molecule `COc1ccc(Oc2ccc(-c3ccc(C(=O)N4CC[C@@H](NC(=O)c5cc(-c6cnn(C)c6)cnc5N)C4)cc3)cc2)cc1` [Example 528, (R)-2-amino-N-(1-(4′-(4-methoxyphenoxy)-[1,1′-biphenyl]-4-carbonyl)pyrrolidin-3-yl)-5-(1-methyl-1H-pyrazol-4-yl)nicotinamide], the IC50 was more than 1000 nM.

Take `Cc1ccc(-c2ccc(C(=O)N3CC[C@@H](NC(=O)c4cc(-c5cnn(C)c5)cnc4N)C3)cc2O)s1` [Example 535, (R)-2-amino-N-(1-(3-hydroxy-4-(5-methylthiophen-2-yl)benzoyl)pyrrolidin-3-yl)-5-(1-methyl-1H-pyrazol-4-yl)nicotinamide]: the IC50 is 100 to 1000 nM.

Take `CC(=O)c1ccc(-c2ccc(C(=O)N3CC[C@@H](NC(=O)c4cc(-c5cnn(C)c5)cnc4N)C3)cc2)s1` [Example 538, (R)—N-(1-(4-(5-acetylthiophen-2-yl)benzoyl)pyrrolidin-3-yl)-2-amino-5-(1-methyl-1H-pyrazol-4-yl)nicotinamide]: the IC50 was 100 to 1000 nM.

For the molecule `Cc1onc(N)c1-c1ccc(C(=O)N2CC[C@@H](NC(=O)c3cc(-c4cnn(C)c4)cnc3N)C2)cc1` [Example 540, (R)-2-amino-N-(1-(4-(3-amino-5-methylisoxazol-4-yl)benzoyl)pyrrolidin-3-yl)-5-(1-methyl-1H-pyrazol-4-yl)nicotinamide], the IC50 is more than 1000 nM.

For the molecule `Cc1cnc(-c2ccc(C(=O)N3CC[C@@H](NC(=O)c4cc(-c5cnn(C)c5)cnc4N)C3)cc2)s1` [Example 543, (R)-2-amino-5-(1-methyl-1H-pyrazol-4-yl)-N-(1-(4-(5-methylthiazol-2-yl)benzoyl)pyrrolidin-3-yl)nicotinamide], the 50% inhibitory concentration (IC50) lay in the range of 100 to 1000 nM.

`Cc1csc(-c2ccc(C(=O)N3CC[C@@H](NC(=O)c4cc(-c5cnn(C)c5)cnc4N)C3)cc2)n1` [Example 544, (R)-2-amino-5-(1-methyl-1H-pyrazol-4-yl)-N-(1-(4-(4-methylthiazol-2-yl)benzoyl)pyrrolidin-3-yl)nicotinamide] displayed an IC50 of 100 to 1000 nM.

For the molecule `Cn1cc(-c2cnc(N)c(C(=O)N[C@@H]3CCN(C(=O)c4nc5ccccc5[nH]4)C3)c2)cn1` [Example 545, (R)—N-(1-(1H-benzo[d]imidazole-2-carbonyl)pyrrolidin-3-yl)-2-amino-5-(1-methyl-1H-pyrazol-4-yl)nicotinamide], the IC50 was more than 1000 nM.

With `Cn1cc(-c2cnc(N)c(C(=O)N[C@@H]3CCN(C(=O)c4ccc(-c5ccc(CN6CCC(N)CC6)cc5)cc4)C3)c2)cn1` [Example 547, (R)-2-amino-N-(1-(4′-((4-aminopiperidin-1-yl)methyl)-[1,1′-biphenyl]-4-carbonyl)pyrrolidin-3-yl)-5-(1-methyl-1H-pyrazol-4-yl)nicotinamide], the 50% inhibitory concentration (IC50) fell in the range of 100 to 1000 nM.

Take `CN1CCC(COc2ccc(-c3ccc(C(=O)N4CC[C@@H](NC(=O)c5cc(-c6cnn(C)c6)cnc5N)C4)cc3)cc2)CC1` [Example 552, (R)-2-amino-5-(1-methyl-1H-pyrazol-4-yl)-N-(1-(4′-((1-methylpiperidin-4-yl)methoxy)-[1,1′-biphenyl]-4-carbonyl)pyrrolidin-3-yl)nicotinamide]: the half-maximal inhibitory concentration (IC50) fell in the range of 100 to 1000 nM.

`Cn1cc(-c2cnc(N)c(C(=O)N[C@@H]3CCN(C(=O)c4ccc(C#CCCO)cc4)C3)c2)cn1` [Example 553, (R)-2-amino-N-(1-(4-(4-hydroxybut-1-yn-1-yl)benzoyl)pyrrolidin-3-yl)-5-(1-methyl-1H-pyrazol-4-yl)nicotinamide] gave a half-maximal inhibitory concentration (IC50) of more than 1000 nM.

`Cn1cc(-c2cnc(N)c(C(=O)N[C@@H]3CCN(C(=O)c4ccc(C#CCCCO)cc4)C3)c2)cn1` [Example 554, (R)-2-amino-N-(1-(4-(5-hydroxypent-1-yn-1-yl)benzoyl)pyrrolidin-3-yl)-5-(1-methyl-1H -pyrazol-4-yl)nicotinamide] returned an IC50 of 100 to 1000 nM.

On to `CN1CCN(c2ccc(-c3cnc(N)c(C(=O)N[C@@H]4CCN(C(=O)c5ccc(-c6ccccc6)cc5)C4)c3)cc2)CC1` [Example 556, (R)—N-(1-([1,1′-biphenyl]-4-carbonyl)pyrrolidin-3-yl)-2-amino-5-(4-(4-methylpiperazin-1-yl)phenyl)nicotinamide], for which the IC50 was in the range of 10 to 100 nM.

As to `Nc1ncc(-c2cccnc2)cc1C(=O)N[C@@H]1CCN(C(=O)c2ccc(-c3ccccc3)cc2)C1` [Example 558, (R)—N-(1-([1,1′-biphenyl]-4-carbonyl)pyrrolidin-3-yl)-6-amino-[3,3′-bipyridine]-5-carboxamide], the IC50 lay within 10 to 100 nM.

For the molecule `Nc1ncc(-c2ccc(F)nc2)cc1C(=O)N[C@@H]1CCN(C(=O)c2ccc(-c3ccccc3)cc2)C1` [Example 560, (R)—N-(1-([1,1′-biphenyl]-4-carbonyl)pyrrolidin-3-yl)-6-amino-6′-fluoro-[3,3′-bipyridine]-5-carboxamide], the IC50 lay within 100 to 1000 nM.

The molecule `Nc1ncc(-c2cnn(C3CCNCC3)c2)cc1C(=O)N[C@@H]1CCN(C(=O)c2ccc(-c3ccccc3)cc2)C1` [Example 562, (R)—N-(1-([1,1′-biphenyl]-4-carbonyl)pyrrolidin-3-yl)-2-amino-5-(1-(piperidin-4-yl)-1H-pyrazol-4-yl)nicotinamide] returned an IC50 of 10 to 100 nM.

As to `CN1CCC(n2cc(-c3cnc(N)c(C(=O)N[C@@H]4CCN(C(=O)c5ccc(-c6ccccc6)cc5)C4)c3)cn2)CC1` [Example 563, (R)—N-(1-([1,1′-biphenyl]-4-carbonyl)pyrrolidin-3-yl)-2-amino-5-(1-(1-methylpiperidin-4-yl)-1H-pyrazol-4-yl)nicotinamide], the IC50 lay within 10 to 100 nM.

Consider `Nc1ncc(-c2ccc(CO)cc2)cc1C(=O)N[C@@H]1CCN(C(=O)c2ccc(-c3ccccc3)cc2)C1` [Example 568, (R)—N-(1-([1,1′-biphenyl]-4-carbonyl)pyrrolidin-3-yl)-2-amino-5-(4-(hydroxymethyl)phenyl)nicotinamide], for which the IC50 is 100 to 1000 nM.

Consider `COCCn1cc(-c2cnc(N)c(C(=O)N[C@@H]3CCN(C(=O)c4ccc(-c5ccccc5Cl)cc4)C3)c2)cn1` [Example 573, (R)-2-amino-N-(1-(2′-chloro-[1,1′-biphenyl]-4-carbonyl)pyrrolidin-3-yl)-5-(1-(2-methoxyethyl)-1H-pyrazol-4-yl)nicotinamide], for which the IC50 lay in the range of 10 to 100 nM.

Regarding `Nc1ncc(-c2ccc(S(N)(=O)=O)cc2)cc1C(=O)N[C@@H]1CCN(C(=O)c2ccc(-c3ccccc3Cl)cc2)C1` [Example 575, (R)-2-amino-N-(1-(2′-chloro-[1,1′-biphenyl]-4-carbonyl)pyrrolidin-3-yl)-5-(4-sulfamoylphenyl)nicotinamide], the IC50 fell in the range of 10 to 100 nM.

On to `CS(=O)(=O)Nc1ccc(-c2cnc(N)c(C(=O)N[C@@H]3CCN(C(=O)c4ccc(-c5ccccc5Cl)cc4)C3)c2)cc1` [Example 576, (R)-2-amino-N-(1-(2′-chloro-[1,1′-biphenyl]-4-carbonyl)pyrrolidin-3-yl)-5-(4-(methylsulfonamido)phenyl)nicotinamide], for which the IC50 was in the range of 100 to 1000 nM.

Turning to `CC(C)(C)n1cc(-c2cnc(N)c(C(=O)N[C@@H]3CCN(C(=O)c4ccc(-c5ccccc5Cl)cc4)C3)c2)cn1` [Example 577, (R)-2-amino-5-(1-(tert-butyl)-1H-pyrazol-4-yl)-N-(1-(2′-chloro-[1,1′-biphenyl]-4-carbonyl)pyrrolidin-3-yl)nicotinamide], the IC50 lay in the range of 10 to 100 nM.

The molecule `Nc1ncc(Br)cc1C(=O)N[C@@H]1CCN(C(=O)c2ccc(-c3ccc(F)cc3Cl)cc2)C1` [Example 580, (R)-2-amino-5-bromo-N-(1-(2′-chloro-4′-fluoro-[1,1′-biphenyl]-4-carbonyl)pyrrolidin-3-yl)nicotinamide] displayed an IC50 of 100 to 1000 nM.

As for `CC(=O)Nc1ccc(-c2cnc(N)c(C(=O)N[C@@H]3CCN(C(=O)c4ccc(-c5ccc(F)cc5Cl)cc4)C3)c2)cn1` [Example 582, (R)-6′-acetamido-6-amino-N-(1-(2′-chloro-4′-fluoro-[1,1′-biphenyl]-4-carbonyl)pyrrolidin-3-yl)-[3,3′-bipyridine]-5-carboxamide], the IC50 was 100 to 1000 nM.

Consider `Nc1ncc(-c2cncc(C(=O)O)c2)cc1C(=O)N[C@@H]1CCN(C(=O)c2ccc(-c3ccc(F)cc3Cl)cc2)C1` [Example 587, (R)-6′-amino-5′-((1-(2′-chloro-4′-fluoro-[1,1′-biphenyl]-4-carbonyl)pyrrolidin-3-yl)carbamoyl)-[3,3′-bipyridine]-5-carboxylic acid], for which the IC50 lay within 100 to 1000 nM.

Values taken from US12378224B2 (Dong-A Socio Holdings Co., Ltd., priority 2016, dated 2025).
